Data published in PubChem BioAssay AID2060331 (Molecular Pharmacology Branch, DTP, NCI, 2025).

Test system: Hs578T multi-cell spheroids, viability
Test: Anticancer human tumor Hs578T cell line growth inhibition [IpAb];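 further: drug exposure lasted 7 days before readout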
Details: for IC50: curve of first compound; for viability, T/C: stronger effect = lower value
Source text: Combinatorial screen of targeted agents with ipatasertib and abemaciclib in multi-cell type tumor spheroids
A high-throughput screen of multi-cell type tumor spheroids was designed to identify active combinations of targeted small molecules and ipatasertib or abemaciclib. Complex spheroids include a stromal component modeled by human endothelial cells (HUVEC) and fibroblasts modeled by human mesenchymal stem cells (MSCs). The concentration ranges selected for each drug and investigational agent were based upon clinically achievable concentrations if the clinical Cmax of the agent was known.
Compounds. The drugs and investigational agents: ipatasertib (NSC767898), abemaciclib(NSC768073), selumetinib (NSC741078), trametinib (758246), adavosertib (NSC754352), everolimus (NSC733504), sapanisertib (NSC764658), vemurafenib (NSC761431), venetoclax (NSC766270), copanlisib (NSC809693), apelisib (NSC765974), palbociblib (NSC758247), vemurafenib (NSC761431), dabrafenib (NSC764134), ravoxertinib (NSC781343), BMS-387032 (NSC767048), sotorasib (NSC818433), talazoparib (NSC767125) and afursertib (NSC778305), were obtained from the National Cancer Institute (NCI) Developmental Therapeutics Program Chemical Repository. The FDA-approved anticancer drug set is available from the NCI Developmental Therapeutics Program. […] The stock solutions were prepared in dimethyl sulfoxide (DMSO, Sigma-Aldrich, St. Louis, MO, cat. D2650) at 800-fold the tested concentration and stored at -70 degrees C prior to their use. All drugs and investigational agents were tested over a range starting from a high concentration at or near the clinical Cmax and decreasing in half-log increments. If the clinical Cmax for an agent had not been determined, the highest concentration tested was 10 microM.
NCI60 Cell Culture. NCI60 cell lines were obtained from the NCI Developmental Therapeutics Program Tumor Repository. For each lot of cells, the Repository performed Applied Biosystems AmpFLSTR Identifiler testing with PCR amplification to confirm consistency with the published Identifier STR profile for each cell line. Cells were kept in continuous culture for no more than 20 passages. The optimal seeding densities for each of the cell lines at each time point assessed were determined prior to performing the concentration response studies. Briefly, the NCI60 human tumor lines were grown as monolayers in RPMI 1640 medium supplemented with 10% FBS and 2 mmol/L L-glutamine.
An additional 9 lines were from the NCI60 cell line panel including MDA-MB-231 breast carcinoma, MDA-MB-468 breast carcinoma, MCF7 breast carcinoma, Hs578T breast carcinoma, MALME-3M melanoma, SK-MEL-2 melanoma, SK-OV-3 ovarian carcinoma, DU-145 prostate carcinoma, PC-3 prostate carcinoma, all cell lines along with major genetic alterations are listed on Table 2. Pooled donor human umbilical vein endothelial cells (HUVEC, Lonza, cat. CC-2519) and human mesenchymal stem cells (hMSC, Lonza, cat. PT-2501) were purchased from Lonza (Walkersville, MD).
PDMR cell lines were grown in complete medium (DC medium): Dulbecco's modified Eagle's medium (DMEM)/F12 supplemented with 5% fetal bovine serum (FBS), 2 mM L-glutamine, 100 U/mL penicillin and 100 µg/ml streptomycin, 0.4 µg/ml hydrocortisone, 10 ng/ml epidermal growth factor (EGF) recombinant human protein, 24 µg/mL adenine, and 0.1 mg/mL primocin. During culture from frozen stock vials, PDMR cells were cultured in the same medium containing 10 µM Y-27632 (see Table 3). The PDCs were cultured in complete DMEM/F12 media without 10 microM Y-27632 dihydrochloride for at least two passages prior to the screen. The pooled donor HUVEC and hMSC were cultured in endothelial cell growth medium 2 (PromoCell, Heidelberg, Germany, cat. C-22011) and mesenchymal stem cell growth medium 2 (PromoCell, cat. C-28009), respectively. For all experiments, HUVEC and hMSC were used at passages </=5.
[…]

[1] = second compound 0.1 µM, first compound 0.0316 µM
[2] = second compound 0.1 µM, first compound 0.1 µM
[3] = second compound 0.1 µM, first compound 0.316 µM
[4] = second compound 0.1 µM, first compound 1 µM
[5] = second compound 0.1 µM, first compound 3.16 µM
[6] = second compound 0.1 µM, first compound 10 µM
[7] = second compound 0.316 µM, first compound 0.0316 µM
[8] = second compound 0.316 µM, first compound 0.1 µM
[9] = second compound 0.316 µM, first compound 0.316 µM
[10] = second compound 0.316 µM, first compound 1 µM
[11] = second compound 0.316 µM, first compound 3.16 µM
[12] = second compound 0.316 µM, first compound 10 µM
[13] = second compound 1 µM, first compound 0.0316 µM
[14] = second compound 1 µM, first compound 0.1 µM
[15] = second compound 1 µM, first compound 0.316 µM
[16] = second compound 1 µM, first compound 1 µM
[17] = second compound 1 µM, first compound 3.16 µM
[18] = second compound 1 µM, first compound 10 µM
[19] = second compound 3.16 µM, first compound 0.0316 µM
[20] = second compound 3.16 µM, first compound 0.1 µM
[21] = second compound 3.16 µM, first compound 0.316 µM
[22] = second compound 3.16 µM, first compound 1 µM
[23] = second compound 3.16 µM, first compound 3.16 µM
[24] = second compound 3.16 µM, first compound 10 µM
[25] = second compound 10 µM, first compound 0.0316 µM
[26] = second compound 10 µM, first compound 0.1 µM
[27] = second compound 10 µM, first compound 0.316 µM
[28] = second compound 10 µM, first compound 1 µM
[29] = second compound 10 µM, first compound 3.16 µM
[30] = second compound 10 µM, first compound 10 µM

Which results are given for `C=CCn1c(=O)c2cnc(Nc3ccc(N4CCN(C)CC4)cc3)nc2n1-c1cccc(C(C)(C)O)n1` + CC(C)NCC(C(=O)N1CCN(c2ncnc3c2C(C)CC3O)CC1)c1ccc(Cl)cc1?
IC50 (second compound 0.1 µM): 280 nM; IC50 (second compound 0.316 µM): 221 nM; IC50 (second compound 1 µM): 129 nM; IC50 (second compound 3.16 µM): 39.4 nM; IC50 (second compound 10 µM): < 31.6 nM; viability, T/C [1]: 103%; viability, T/C [2]: 74.2%; viability, T/C [3]: 49.4%; viability, T/C [4]: 26.9%; viability, T/C [5]: 20.5%; viability, T/C [6]: 19.2%; viability, T/C [7]: 74.1%; viability, T/C [8]: 62.9%; viability, T/C [9]: 44.3%; viability, T/C [10]: 27.6%; viability, T/C [11]: 22.8%; viability, T/C [12]: 16.7%; viability, T/C [13]: 64.9%; viability, T/C [14]: 54.7%; viability, T/C [15]: 35.7%; viability, T/C [16]: 25.7%; viability, T/C [17]: 25.8%; viability, T/C [18]: 17.6%; viability, T/C [19]: 51.2%; viability, T/C [20]: 44.4%; viability, T/C [21]: 29.1%; viability, T/C [22]: 23.7%; viability, T/C [23]: 20.5%; viability, T/C [24]: 11.9%; viability, T/C [25]: 49.2%; viability, T/C [26]: 37.2%; viability, T/C [27]: 22.6%; viability, T/C [28]: 21%; viability, T/C [29]: 16.3%; viability, T/C [30]: 5.72%

What does the source list for `CC(C)n1nc(-c2ccc3oc(N)nc3c2)c2c(N)ncnc21` + CC(C)NCC(C(=O)N1CCN(c2ncnc3c2C(C)CC3O)CC1)c1ccc(Cl)cc1?
IC50 (second compound 0.1 µM): 5.88 nM; IC50 (second compound 0.316 µM): 3.52 nM; IC50 (second compound 1 µM): 1.38 nM; IC50 (second compound 3.16 µM): < 0.316 nM; IC50 (second compound 10 µM): < 0.316 nM; viability, T/C (second compound 0.1 µM, first compound 0.000316 µM): 94.8%; viability, T/C (second compound 0.1 µM, first compound 0.001 µM): 86.6%; viability, T/C (second compound 0.1 µM, first compound 0.00316 µM): 63.7%; viability, T/C (second compound 0.1 µM, first compound 0.01 µM): 38.6%; viability, T/C [1]: 19.9%; viability, T/C [2]: 15.5%; viability, T/C (second compound 0.316 µM, first compound 0.000316 µM): 79.2%; viability, T/C (second compound 0.316 µM, first compound 0.001 µM): 72.4%; viability, T/C (second compound 0.316 µM, first compound 0.00316 µM): 50.8%; viability, T/C (second compound 0.316 µM, first compound 0.01 µM): 30.7%; viability, T/C [7]: 14.2%; viability, T/C [8]: 11.8%; viability, T/C (second compound 1 µM, first compound 0.000316 µM): 61.7%; viability, T/C (second compound 1 µM, first compound 0.001 µM): 55.3%; viability, T/C (second compound 1 µM, first compound 0.00316 µM): 37.2%; viability, T/C (second compound 1 µM, first compound 0.01 µM): 20.7%; viability, T/C [13]: 14%; viability, T/C [14]: 12.2%; viability, T/C (second compound 3.16 µM, first compound 0.000316 µM): 47.4%; viability, T/C (second compound 3.16 µM, first compound 0.001 µM): 41.4%; viability, T/C (second compound 3.16 µM, first compound 0.00316 µM): 28.4%; viability, T/C (second compound 3.16 µM, first compound 0.01 µM): 17.3%; viability, T/C [19]: 12.2%; viability, T/C [20]: 10.4%; viability, T/C (second compound 10 µM, first compound 0.000316 µM): 48.1%; viability, T/C (second compound 10 µM, first compound 0.001 µM): 35.9%; viability, T/C (second compound 10 µM, first compound 0.00316 µM): 25.4%; viability, T/C (second compound 10 µM, first compound 0.01 µM): 12%; viability, T/C [25]: 11.4%; viability, T/C [26]: 8.97%

What does the source list for `CCCS(=O)(=O)Nc1ccc(F)c(C(=O)c2c[nH]c3ncc(-c4ccc(Cl)cc4)cc23)c1F` + CC(C)NCC(C(=O)N1CCN(c2ncnc3c2C(C)CC3O)CC1)c1ccc(Cl)cc1?
IC50 (second compound 0.1 µM): 4680 nM; IC50 (second compound 0.316 µM): 3600 nM; IC50 (second compound 1 µM): 3170 nM; IC50 (second compound 3.16 µM): 1350 nM; IC50 (second compound 10 µM): < 31.6 nM; viability, T/C [1]: 97.9%; viability, T/C [2]: 95.8%; viability, T/C [3]: 92.3%; viability, T/C [4]: 89.9%; viability, T/C [5]: 71.2%; viability, T/C [6]: 9.19%; viability, T/C [7]: 94.8%; viability, T/C [8]: 83.4%; viability, T/C [9]: 88.3%; viability, T/C [10]: 82.6%; viability, T/C [11]: 55.3%; viability, T/C [12]: 7.94%; viability, T/C [13]: 69.2%; viability, T/C [14]: 71.2%; viability, T/C [15]: 74.1%; viability, T/C [16]: 68.1%; viability, T/C [17]: 50.1%; viability, T/C [18]: 4.41%; viability, T/C [19]: 56.5%; viability, T/C [20]: 57.8%; viability, T/C [21]: 51%; viability, T/C [22]: 55.3%; viability, T/C [23]: 35.8%; viability, T/C [24]: 2.97%; viability, T/C [25]: 48.3%; viability, T/C [26]: 45.1%; viability, T/C [27]: 49.5%; viability, T/C [28]: 38.6%; viability, T/C [29]: 27.5%; viability, T/C [30]: 0.51%
